Patent publication US20190071416A1, “COMPOUNDS FOR TREATMENT OF CANCER AND EPIGENETICS” (Agency For Science, Technology and Research, priority 2015, published 2019)

Target: T1, SMYD3 (Homo sapiens, UniProt Q9H7B4)
T1 sequence (Q9H7B4 1-428): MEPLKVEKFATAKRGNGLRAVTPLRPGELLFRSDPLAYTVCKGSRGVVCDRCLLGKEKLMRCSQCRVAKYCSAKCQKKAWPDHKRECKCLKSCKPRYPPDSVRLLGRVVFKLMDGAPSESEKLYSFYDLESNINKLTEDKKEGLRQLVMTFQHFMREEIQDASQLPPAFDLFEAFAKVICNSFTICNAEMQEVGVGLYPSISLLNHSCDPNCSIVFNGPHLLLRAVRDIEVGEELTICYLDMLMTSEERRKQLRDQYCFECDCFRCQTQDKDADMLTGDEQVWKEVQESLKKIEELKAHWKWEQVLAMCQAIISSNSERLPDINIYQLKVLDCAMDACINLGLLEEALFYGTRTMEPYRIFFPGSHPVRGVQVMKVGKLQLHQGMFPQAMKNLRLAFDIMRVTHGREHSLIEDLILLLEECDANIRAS
Assay: SMYD3 biochemical assay (MTase-Glo, MAP3K2 peptide substrate)
Conditions: Table 3; MTase assay, MAP3K2 peptide substrate; read-out: IC50
Experimental: A SMYD3 enzymatic assay was developed using Promega's Methyltransferase-Glo™ reagents. In the assay, SMYD3 catalyzes the methylation of the MAP3K2 peptide substrate by transferring a methyl group from SAM to MAP3K2 peptide and further converts the SAM to SAH. The SMYD3 methyltransferase activity is measured based on the amount of SAH produced from the reaction through the use of coupling enzymes that convert the SAH to ATP. The MTase-Glo detection solution then catalyzes the formation of light from ATP.
A final concentration of 1.0 μM and 10 μM SAM and MAP3K2 peptide were added and further incubated for 30 min at room temperature before adding the MTase Glo and detection reagent. Reaction signals were detected using microplate readers on luminescent mode (Safire Tecan). The IC50 was determined by non-linear regression, using GraphPad Prism version, 5.03.

Compound	IC50 [nM]
C=CCOC(=O)N1CCN(C(=O)c2ccc3c(Cl)c4c(nc3c2)CCCC4)CC1 [A002, Allyl 4-(9-chloro-5,6,7,8-tetrahydroacridine-3-carbonyl)piperazine-a1-carboxylate]	1000
CCCCC(=O)N1CCN(C(=O)c2ccc3c(Cl)c4c(nc3c2)CCCC4)CC1 [A003, 1-(4-(9-Chloro-5,6,7,8-tetrahydroacridine-3-carbonyl)piperazin-1-yl)pentan-1-one]	1520
CCCOC(=O)N1CC2CCC1CN2C(=O)c1ccc2c(Cl)c3c(nc2c1)CCCC3 (stereo not shown) [A005, Propyl 5-(9-chloro-5,6,7,8-tetrahydroacridine-3-carbonyl)-2,5-diazabicyclo[2.2.2]octane-2-carboxylate]	4500
O=C(c1ccc2c(Cl)c3c(nc2c1)CCCC3)N1CCN(C(=O)c2cc(C3CC3)on2)CC1 [A006, (9-Chloro-5,6,7,8-tetrahydroacridin-3-yl)(4-(5-cyclopropylisoxazole-3-carbonyl)piperazin-1-yl)methanone]	6700
CC(C)Cc1cc(C(=O)N2CCN(C(=O)c3ccc4c(Cl)c5c(nc4c3)CCCC5)CC2)no1 [A007, (9-Chloro-5,6,7,8-tetrahydroacridin-3-yl)(4-(5-isobutylisoxazole-3-carbonyl)piperazin-1-yl)methanone]	6900
CCCOC(=O)N1CCN(C(=O)c2ccc3c(Cl)c4c(nc3c2)CCC(C)C4)CC1 (stereo not shown) [A008, Propyl 4-(9-chloro-7-methyl-5,6,7,8-tetrahydroacridine-3-carbonyl)piperazine-1-carboxylate]	1300
Cc1cc(C(=O)N2CCN(C(=O)c3ccc4c(Cl)c5c(nc4c3)CCCC5)CC2)no1 [A012, (9-Chloro-5,6,7,8-tetrahydroacridin-3-yl)(4-(5-methylisoxazole-3-carbonyl)piperazin-1-yl)methanone]	1670
CCCOC(=O)N1CC2CC(C1)N2C(=O)c1ccc2c(Cl)c3c(nc2c1)CCCC3 [A014, Propyl 6-(9-chloro-5,6,7,8-tetrahydroacridine-3-carbonyl)-3,6-diazabicyclo[3.1.1]heptane-3-carboxylate]	1000
CCCOC(=O)N1CCN(C(=O)c2ccc3c(Cl)c4c(nc3c2)CCCC4)C(CC)C1 (stereo not shown) [A016, Propyl 4-(9-chloro-5,6,7,8-tetrahydroacridine-3-carbonyl)-3-ethylpiperazine-1-carboxylate]	640
CCCOC(=O)N1C2CC1CN(C(=O)c1ccc3c(Cl)c4c(nc3c1)CCCC4)C2 [A019, Propyl 3-(9-chloro-5,6,7,8-tetrahydroacridine-3-carbonyl)-3,6-diazabicyclo[3.1.1]heptane-6-carboxylate]	13100
CC(C)COC(=O)N1CCN(C(=O)c2ccc3c(Cl)c4c(nc3c2)CCCC4)CC1 [A021, Isobutyl 4-(9-chloro-5,6,7,8-tetrahydroacridine-3-carbonyl)piperazine-1-carboxylate]	840
CCCOC(=O)N1CCN(C(=O)c2ccc3c(Cl)c4c(nc3c2)CC(C)CC4)CC1 (stereo not shown) [A022, Propyl 4-(9-chloro-6-methyl-5,6,7,8-tetrahydroacridine-3-carbonyl)piperazine-1-carboxylate]	1000
CCCOC(=O)N1CCN(C(=O)c2ccc3c(Cl)c4c(nc3c2)CCCC4C)CC1 (stereo not shown) [A023, Propyl 4-(9-chloro-8-methyl-5,6,7,8-tetrahydroacridine-3-carbonyl)piperazine-1-carboxylate]	5200
CCCOC(=O)N1CCN(C(=O)c2ccc3c(Cl)c4c(nc3c2)CC(c2ccccc2)CC4)CC1 (stereo not shown) [A024, Propyl 4-(9-chloro-6-phenyl-5,6,7,8-tetrahydroacridine-3-carbonyl)piperazine-1-carboxylate]	1200
CCCOC(=O)N1CCN(C(=O)c2ccc3c(Cl)c4c(nc3c2)CC(C#N)CC4)CC1 (stereo not shown) [A025, Propyl 4-(9-chloro-6-cyano-5,6,7,8-tetrahydroacridine-3-carbonyl)piperazine-1-carboxylate]	1900
CCCOC(=O)N1CCN(C(=O)c2ccc3c(Cl)c4c(nc3c2)CCCC4C#N)CC1 (stereo not shown) [A026, Propyl 4-(9-chloro-8-cyano-5,6,7,8-tetrahydroacridine-3-carbonyl)piperazine-1-carboxylate]	3200
CCCOC(=O)N1CCN(C(=O)c2ccc3c(Cl)c4c(nc3c2)CCC(C(=O)OC)C4)CC1 (stereo not shown) [A029, Methyl 9-chloro-6-(4-(propoxycarbonyl)piperazine-1-carbonyl)-1,2,3,4-tetrahydroacridine-2-carboxylate]	860
CCCOC(=O)N1CCN(C(=O)c2ccc3c(Cl)c4c(nc3c2)CCCC4)CC1CO (stereo not shown) [A032, Propyl 4-(9-chloro-5,6,7,8-tetrahydroacridine-3-carbonyl)-2-(hydroxymethyl)piperazine-1-carboxylate]	1200

Next, values leading:

IC50 [nM]	Compound
120	CCCOC(=O)N1CCN(C(=O)c2ccc3c(Cl)c4c(nc3c2)CC(c2ccccn2)CC4)CC1 (single isomer, unassigned) [A053 (Ent-1), Propyl (R/S)-4-(9-chloro-6-(pyridin-2-yl)-5,6,7,8-tetrahydroacridine-3-carbonyl)piperazine-1-carboxylate]
240	CCCOC(=O)N1CCN(C(=O)c2ccc3c(Cl)c4c(nc3c2)CC(c2ccccn2)CC4)CC1 (single isomer, unassigned) [A053 (Ent-2), Propyl (R/S)-4-(9-chloro-6-(pyridin-2-yl)-5,6,7,8-tetrahydroacridine-3-carbonyl)piperazine-1-carboxylate]
400	CCCOC(=O)N1CCN(C(=O)c2ccc3c(Cl)c4c(nc3c2)CCCC4)CC1 [A001, Propyl 4-(9-chloro-5,6,7,8-tetrahydroacridine-3-carbonyl)piperazine-1-carboxylate]
350	CCCOC(=O)N1CC2CCC(C1)N2C(=O)c1ccc2c(Cl)c3c(nc2c1)CCCC3 [A004, Propyl 8-(9-chloro-5,6,7,8-tetrahydroacridine-3-carbonyl)-3,8-diazabicyclo[3.2.1]octane-3-carboxylate]
360	CCCOC(=O)N1C2CCC1CN(C(=O)c1ccc3c(Cl)c4c(nc3c1)CCCC4)C2 [A009, Propyl 3-(9-chloro-5,6,7,8-tetrahydroacridine-3-carbonyl)-3,8-diazabicyclo[3.2.1]octane-8-carboxylate]
190	CCCOC(=O)N1CCN(C(=O)c2ccc3c(Cl)c4c(nc3c2)CCCC4)[C@@H](C)C1 [A010, Propyl (S)-4-(9-chloro-5,6,7,8-tetrahydroacridine-3-carbonyl)-3-methylpiperazine-1-carboxylate]
300	CCCOC(=O)N1CCN(C(=O)c2ccc3c(Cl)c4c(nc3c2)CCCC4)[C@H](C)C1 [A011, Propyl (R)-4-(9-chloro-5,6,7,8-tetrahydroacridine-3-carbonyl)-3-methylpiperazine-1-carboxylate]
190	CCCOC(=O)N1C2CCCC1CN(C(=O)c1ccc3c(Cl)c4c(nc3c1)CCCC4)C2 [A013, Propyl 3-(9-chloro-5,6,7,8-tetrahydroacridine-3-carbonyl)-3,9-diazabicyclo[3.3.1]nonane-9-carboxylate]
320	CCCOC(=O)N1CC2CCCC(C1)N2C(=O)c1ccc2c(Cl)c3c(nc2c1)CCCC3 [A015, Propyl 9-(9-chloro-5,6,7,8-tetrahydroacridine-3-carbonyl)-3,9-diazabicyclo[3.3.1]nonane-3-carboxylate]
290	CCCOC(=O)N1CC(C)N(C(=O)c2ccc3c(Cl)c4c(nc3c2)CCCC4)CC1C (stereo not shown) [A017, Propyl 4-(9-chloro-5,6,7,8-tetrahydroacridine-3-carbonyl)-2,5-dimethylpiperazine-1-carboxylate]
390	CCCOC(=O)N1CCN(C(=O)c2ccc3c(Cl)c4c(nc3c2)CCCC4)CC1C (stereo not shown) [A018, Propyl 4-(9-chloro-5,6,7,8-tetrahydroacridine-3-carbonyl)-2-methylpiperazine-1-carboxylate]
350	CCCOC(=O)N1C(C)CN(C(=O)c2ccc3c(Cl)c4c(nc3c2)CCCC4)CC1C (stereo not shown) [A020, Propyl 4-(9-chloro-5,6,7,8-tetrahydroacridine-3-carbonyl)-2,6-dimethylpiperazine-1-carboxylate]
400	CCCOC(=O)N1CCN(C(=O)c2ccc3c(Cl)c4c(nc3c2)CC(c2cccnc2)CC4)CC1 (stereo not shown) [A027, Propyl 4-(9-chloro-6-(pyridin-3-yl)-5,6,7,8-tetrahydroacridine-3-carbonyl)piperazine-1-carboxylate]
380	CCCOC(=O)N1CCN(C(=O)c2ccc3c(Cl)c4c(nc3c2)CC(CN)CC4)CC1 (stereo not shown) [A028, Propyl 4-(6-(aminomethyl)-9-chloro-5,6,7,8-tetrahydroacridine-3-carbonyl)piperazine-1-carboxylate]
630	CCCOC(=O)N1CCN(C(=O)c2ccc3c(Cl)c4c(nc3c2)CCCC4)CC1CC (stereo not shown) [A030, Propyl 4-(9-chloro-5,6,7,8-tetrahydroacridine-3-carbonyl)-2-ethylpiperazine-1-carboxylate]
150	CCCOC(=O)N1CCN(C(=O)c2ccc3c(Cl)c4c(nc3c2)CCCC4)C(C)C1 (stereo not shown) [A031, Propyl 4-(9-chloro-5,6,7,8-tetrahydroacridine-3-carbonyl)-3-methylpiperazine-1-carboxylate]
